Data as given in patent publication US11142520B2, “LDHA activity inhibitors” (ARCTIC PHARMA AS, priority 2017, dated 2021).

What was measured:
LDHA [1] = target: T1, LDHA (Homo sapiens (Human), UniProt P00338); test: Coupled diaphorase assay, LDHA; assay type: biochemical; conditions: lactate to pyruvate direction, 4-7 nM LDHA
Excerpt: (§1) The inhibitory properties of the compounds were investigated using a coupled enzyme assay that links the lactate dehydrogenase (LDH) reaction to the production of fluorescent resorutin by diaphorase.
(§2) Human lactate dehydrogenases (LDH) catalyze the reversible interconversion between pyruvate and lactate. LDH is capable of catalyzing both the forward (pyruvate to lactate) and the reverse (lactate to pyruvate) reaction, using either NADH or NAD^+ as a cofactor. The reaction proceeds in either direction dependent on various factors, such as substrate availability, the presence of necessary cofactors, temperature and pH. Different isoforms (LDH A, B, and C) of the enzyme favor different reaction directions—LDHA prefers the conversion from pyruvate to lactate, whereas LDHB preferentially oxidizes lactate to pyruvate.
The coupled assay relies on the oxidation of NAD^+ to NADH throughout the conversion of lactate to pyruvate by LDH (isoforms A, B and C). The produced NADH serves as cofactor in the diaphorase reaction, which reduces non-fluorescent resazurin to fluorescent resorufin. Therefore, the assay indirectly monitors the rate of pyruvate production. Although the consumption of NADH can be directly monitored due to the intrinsic fluorescence of the molecule (excitation: 340 nm, emission: 460 nm) there are problems linked to the direct readout method. […] Shifting the assay to longer wavelengths by coupling the LDH reaction to the conversion of resazurin to fluorescent resorufin by diaphorase reduces this compound interference. The assay direction was thus chosen to provide a robust and reliable assay. […]
Compounds were tested in duplicates using 2-fold, 3-fold or 4-fold serial dilutions including 11 individual concentrations, starting from 5000 μM to 30 μM. […] The controls allowed for the calculation of the percentage inhibition for each data point. […] Enzyme solution leading to final concentrations of 4-7 nM LDHA or 6 nM LDHB, as well as 0.2 U/ml diaphorase in the reaction well was dispensed into 384-well plates (Greiner bio-one) using a CyBi®-SELMA robotic pipettor. Compound dilutions and the enzyme were incubated for at least 20 min at room temperature. […] The reaction was quenched by the addition of a stop solution (final concentrations: 20 mM EDTA, 400 mM NaCl, 40 mM pyruvate). Fluorescence was read out after 5 min of incubation at an excitation wavelength of 560 nm and an emission wavelength of 590 nm on a Perkin Elmer Victor X plate reader. […]
(§3) Fluorescence data was normalized to DMSO and inhibition controls resulting in percentage inhibition for every compound concentration. Dose response curves were fitted in KaleidaGraph (www.synergy.com) or Dotmatics software package (www.dotmatics.com) using a standard 4-parameter fit (Levenberg-Marquardt fitting procedure), resulting in IC50 values for the test compounds.

LDHA [2] = target: T1, LDHA; test: Isothermal titration calorimetry (ITC); assay type: binding; conditions: 25° C., NADH 1 mM
Procedure: ITC experiments were performed using a MicorCal PEAQ ITC instrument. Prior to the experiments, LDHA was dialyzed against 50 mM potassium phosphate buffer pH 7.4, 150 mM NaCl, 0.002% pluronic acid F-127 at 4° C. overnight using mini dialysis kits from GE Healthcare. The tested compounds were dissolved to 100 mM in DMSO. After dialysis, the protein was centrifuged at 14,000 rpm at 4° C. for 30 min. Buffer and MilliQ water for the reference cell were degassed prior to use. Protein concentration was determined by A280 nm measurements using a Nanodrop. All ITC experiments were conducted at 25° C. with stirring at 750 rpm. In a typical experiment the compound of interest was loaded into the sample cell at 20 μM and LDHA (200 μM in syringe) was titrated to the compound solution in consecutive injections. NADH (1 mM) and DMSO concentrations (2%) were matched in all solutions. Data were analyzed using the MicroCal PEAQ-ITC analysis software and fitted to a single site binding model, resulting in binding constant Kd, enthalpy ΔH, entropy ΔS and the stoichiometry N.

LDHB = LDHB (Homo sapiens (Human), UniProt P07195); test: Coupled diaphorase assay, LDHB; assay type: biochemical; conditions: lactate to pyruvate direction, 6 nM LDHB
Excerpt: as §1, §2
The coupled assay relies on the oxidation of NAD^+ to NADH throughout the conversion of lactate to pyruvate by LDH (isoforms A, B and C). The produced NADH serves as cofactor in the diaphorase reaction, which reduces non-fluorescent resazurin to fluorescent resorufin. Therefore, the assay indirectly monitors the rate of pyruvate production. Although the consumption of NADH can be directly monitored due to the intrinsic fluorescence of the molecule (excitation: 340 nm, emission: 460 nm) there are problems linked to the direct readout method. […] Shifting the assay to longer wavelengths by coupling the LDH reaction to the conversion of resazurin to fluorescent resorufin by diaphorase reduces this compound interference. The assay direction was thus chosen to provide a robust and reliable assay.
Applying the LDHA reaction in the preferred direction for the conversion of pyruvate to lactate under oxidation of NADH to NAD^+ would necessitate running the LDHA reaction to about 80% completion and adding the diaphorase assay reagents afterwards in order to avoid enzyme competition for NADH.
The controls allowed for the calculation of the percentage inhibition for each data point. […] Enzyme solution leading to final concentrations of 4-7 nM LDHA or 6 nM LDHB, as well as 0.2 U/ml diaphorase in the reaction well was dispensed into 384-well plates (Greiner bio-one) using a CyBi®-SELMA robotic pipettor. Compound dilutions and the enzyme were incubated for at least 20 min at room temperature. […] The reaction was quenched by the addition of a stop solution (final concentrations: 20 mM EDTA, 400 mM NaCl, 40 mM pyruvate). Fluorescence was read out after 5 min of incubation at an excitation wavelength of 560 nm and an emission wavelength of 590 nm on a Perkin Elmer Victor X plate reader. […]
as §3

[3] = system: MIA PaCa-2 human pancreatic cells; conditions: MIA PaCa-2 cells; cited from earlier work
LDH = conditions: in vitro; cited from earlier work

LDHB, sequence (P07195 whole entry): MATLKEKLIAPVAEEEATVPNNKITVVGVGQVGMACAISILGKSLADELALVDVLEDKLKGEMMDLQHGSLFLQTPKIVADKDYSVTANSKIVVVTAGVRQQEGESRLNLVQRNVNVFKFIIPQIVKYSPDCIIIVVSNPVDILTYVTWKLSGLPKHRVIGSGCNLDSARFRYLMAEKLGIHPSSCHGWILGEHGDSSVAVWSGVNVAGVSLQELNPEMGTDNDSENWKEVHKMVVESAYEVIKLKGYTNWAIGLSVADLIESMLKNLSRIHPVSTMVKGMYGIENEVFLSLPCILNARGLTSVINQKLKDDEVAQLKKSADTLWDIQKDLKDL

| Compound | IC50 (LDHA [1]) | IC50 (LDHB) | other results |
| --- | --- | --- | --- |
| O=C1CC(c2ccc(N3CCOCC3)cc2)(c2ccsc2)NC(=O)C1Sc1cc(Cl)ccc1Cl (racemic) [Example 10, 3-((2,5-dichlorophenyl)thio)-6-(4-morpholinophenyl)-6-(thiophen-3-yl)piperidine-2,4-dione] | 0.1 to 0.5 µM |  | -TΔS (LDHA [2]): 0.944 kcal/mol; Kd (LDHA [2]): 0.0432 µM; N (stoichiometry) (LDHA [2]): 0.796; ΔH (LDHA [2]): -11 kcal/mol |
| O=C1CC(c2ccsc2)(c2cccc(OCC3CCCC3)n2)NC(=O)C1Sc1ccc(F)cc1Cl (centres unmarked) [Example 3, 3-[(2-chloro-4-fluorophenyl)sulfanyl]-6-[6-(cyclopentylmethoxy)pyridin-2-yl]-6-(thiophen-3-yl)piperidine-2,4-dione] | 0.5 to 10 µM | > 100 µM | -TΔS (LDHA [2]): 5.11 kcal/mol; Kd (LDHA [2]): 0.373 µM; N (stoichiometry) (LDHA [2]): 0.721; ΔH (LDHA [2]): -3.68 kcal/mol |
| O=C1CC(c2ccsc2)(c2cccc(OCC3CCCC3)n2)NC(=O)C1Sc1cc(Cl)ccc1Cl (centres unmarked) [Example 5, 6-[6-(cyclopentylmethoxy)pyridin-2-yl]-3-[(2,5-dichlorophenyl)sulfanyl]-6-(thiophen-3-yl)piperidine-2,4-dione] | 0.1 to 0.5 µM |  | -TΔS (LDHA [2]): 4.06 kcal/mol; Kd (LDHA [2]): 0.671 µM; N (stoichiometry) (LDHA [2]): 0.548; ΔH (LDHA [2]): -4.35 kcal/mol |
| CC(=O)OC1=C(Sc2ccc(F)cc2Cl)C(=O)NC(c2ccsc2)(c2cccc(OCC3CCCC3)n2)C1 (centres unmarked) [Example 13, 5-((2-chloro-4-fluorophenyl)thio)-6′-(cyclopentylmethoxy)-6-oxo-2-(thiophen-3-yl)-1,2,3,6-tetrahydro-[2,2′-bipyridin]-4-yl acetate] | > 100 µM | > 100 µM |  |
| CCCOC(=O)OC1=C(Sc2ccc(F)cc2Cl)C(=O)NC(c2ccc(N3CCOCC3)cc2)(c2ccsc2)C1 (centres unmarked) [Example 14, 5-((2-chloro-4-fluorophenyl)thio)-2-(4-morpholinophenyl)-6-oxo-2-(thiophen-3-yl)-1,2,3,6-tetrahydropyridin-4-yl propyl carbonate] | 50 to 100 µM | 50 to 100 µM |  |
| CCOC(=O)OC1=C(Sc2cccc(Cl)c2Cl)C(=O)NC(c2ccc(N3CCOCC3)cc2)(c2ccsc2)C1 (centres unmarked) [Example 15, 5-((2,3-dichlorophcnyl)thio)-2-(4-morpholinophenyI)-6-oxo-2-(thiophcn-3-yl)-1,2,3,6-tetrahydropyridin-4-yl ethyl carbonate] | 50 to 100 µM | > 100 µM |  |
| O=C1CC(c2ccsc2)(c2ccccn2)OC(=O)C1Sc1ccccc1Cl (centres unmarked) [Example 20, 3-((2-chlorophenyl)thio)-6-(pyridin-2-yl)-6-(thiophen-3-yl)dihydro-2H-pyran-2,4(3H)-dione] | 0.5 to 10 µM | 0.5 to 10 µM |  |
| COCCOC(=O)OC1=C(Sc2ccc(Cl)cc2Cl)C(=O)NC(c2ccsc2)(c2cccc(OCC3CCCC3)n2)C1 (centres unmarked) [Example 22, 6′-(cyclopentylmethoxy)-5-((2,4-dichlorophenyl)thio)-6-oxo-2-(thiophen-3-yl)-1,2,3,6-tetrahydro-[2,2′-bipyridin]-4-yl (2-methoxyethyl) carbonate] | > 100 µM | > 100 µM |  |
| O=C1CC(c2cnc(N3CCOCC3)nc2)(c2ccsc2)OC(=O)C1Sc1ccccc1Cl (centres unmarked) [Example 23, 3-((2-chlorophenyl)thio)-6-(2-morpholinopyrimidin-5-yl)-6-(thiophen-3-yl)dihydro-2H-pyran-2,4(3H)-dione] | 0.5 to 10 µM | 0.5 to 10 µM |  |
| O=C1CC(c2ccc(N3CCOCC3)cc2)(c2ccsc2)NC(=O)C1Sc1ccccc1Cl (centres unmarked) [Example 24, 3-((2-chlorophenyl)thio)-6-(4-morpholinophenyl)-6-(thiophen-3-yl)piperidine-2,4-dione] |  |  | time of continuous LDHA inhibition until cell death occurred [3]: ≥ 2 days |
| O=C1CC(c2ccc(N3CCOCC3)cc2)(c2ccsc2)NC(=O)C1Sc1ccc(Cl)cc1Cl (centres unmarked) [Example 29, 3-((2,4-dichlorophenyl)thio)-6-(4-morpholinophenyl)-6-(thiophen-3-yl)piperidine-2,4-dione] | 50 to 100 µM | > 100 µM |  |
| COCCOC(=O)OC1=C(Sc2ccc(Cl)cc2Cl)C(=O)NC(c2ccc(N3CCOCC3)cc2)(c2ccsc2)C1 (centres unmarked) [Example 30, 5-((2,4-dichlorophenyl)thio)-2-(4-morpholinophenyl)-6-oxo-2-(thiophen-3-yl)-1,2,3,6-tetrahydropyridin-4-yl (2-methoxyethyl) carbonate] | > 100 µM | > 100 µM |  |
| CC(C)COC(=O)OC1=C(Sc2ccc(F)cc2Cl)C(=O)NC(c2ccc(N3CCOCC3)cc2)(c2ccsc2)C1 (centres unmarked) [Example 32, 5-((2-chloro-4-fluorophenyl)thio)-2-(4-morpholinophenyl)-6-oxo-2-(thiophen-3-yl)-1,2,3,6-tetrahydropyridin-4-yl iso-butyl carbonate] | > 100 µM | > 100 µM |  |
| COCCOC(=O)OC1=C(Sc2ccc(F)cc2Cl)C(=O)NC(c2ccc(N3CCOCC3)cc2)(c2ccsc2)C1 (centres unmarked) [Example 33, 5-((2-chloro-4-fluorophenyl)thio)-2-(4-morpholinophenyl)-6-oxo-2-(thiophen-3-yl)-1,2,3,6-tetrahydropyridin-4-yl (2-methoxyethyl) carbonate] | 0.5 to 10 µM | > 100 µM |  |
| NC(=O)C(=O)O [Oxamate] |  |  | concentration range that inhibits LDH enzyme activity (LDH): mM range |
